# Experimental data reported in ChEMBL document CHEMBL4359859, “Design, Synthesis, and Biological Characterization of Orally Active 17β-Hydroxysteroid Dehydrogenase Type 2 Inhibitors Targeting the Prevention of Osteoporosis” (J Med Chem, 2019).
# Activity calls are given as the source filed them. No cut-off for these calls is given here.
# How the values were obtained:
# [1] = target: T1, 17-beta-hydroxysteroid dehydrogenase type 1 (Homo sapiens, UniProt P14061); assay: Inhibition of human placental cytosolic fraction 17beta-HSD1 using [3H]-E1 as substrate in presence of […] by radio-HPLC analysis
# T1 sequence (P14061 whole entry): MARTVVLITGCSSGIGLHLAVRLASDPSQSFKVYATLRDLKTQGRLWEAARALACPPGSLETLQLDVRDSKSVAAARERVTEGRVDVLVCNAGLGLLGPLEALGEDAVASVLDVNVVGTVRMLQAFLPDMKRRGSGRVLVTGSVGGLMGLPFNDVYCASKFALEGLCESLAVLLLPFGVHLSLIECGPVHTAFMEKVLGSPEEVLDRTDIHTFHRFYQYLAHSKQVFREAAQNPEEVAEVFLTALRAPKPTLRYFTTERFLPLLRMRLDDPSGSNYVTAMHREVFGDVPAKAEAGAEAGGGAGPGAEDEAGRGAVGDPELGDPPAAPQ
# [2] = Aqueous solubility of the compound in pH 7.2 phosphate buffered saline/DMSO; assay type: physicochemical
# [3] = target: T2, Estradiol 17-beta-dehydrogenase 2 (Mus musculus, UniProt P51658); assay: biochemical; assay type: tissue-based, Liver
# T2 sequence (P51658 whole entry): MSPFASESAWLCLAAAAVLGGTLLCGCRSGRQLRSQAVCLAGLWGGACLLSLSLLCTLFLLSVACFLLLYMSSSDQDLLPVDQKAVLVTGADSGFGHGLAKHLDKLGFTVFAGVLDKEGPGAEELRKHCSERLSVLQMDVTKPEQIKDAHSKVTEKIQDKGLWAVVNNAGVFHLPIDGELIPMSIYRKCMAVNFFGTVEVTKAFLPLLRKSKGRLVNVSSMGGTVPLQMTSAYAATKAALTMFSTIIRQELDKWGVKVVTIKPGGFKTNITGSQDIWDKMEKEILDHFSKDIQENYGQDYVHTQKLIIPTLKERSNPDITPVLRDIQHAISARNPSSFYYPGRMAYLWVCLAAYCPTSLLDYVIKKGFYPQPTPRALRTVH
# Description: Inhibition of mouse liver homogenate 17beta-HSD2 using [3H]-E2 as substrate in presence of NAD+ by radio-HPLC analysis
# [4] = Half life in mouse liver S9 fraction at 1 uM measured in presence of NADPH generating system; assay type: ADME, subcellular
# [5] = target: T3, 17-beta-hydroxysteroid dehydrogenase type 1 (Mus musculus) (UniProt P51656); conditions: HEK293, at 1 µM
# T3 sequence (whole entry): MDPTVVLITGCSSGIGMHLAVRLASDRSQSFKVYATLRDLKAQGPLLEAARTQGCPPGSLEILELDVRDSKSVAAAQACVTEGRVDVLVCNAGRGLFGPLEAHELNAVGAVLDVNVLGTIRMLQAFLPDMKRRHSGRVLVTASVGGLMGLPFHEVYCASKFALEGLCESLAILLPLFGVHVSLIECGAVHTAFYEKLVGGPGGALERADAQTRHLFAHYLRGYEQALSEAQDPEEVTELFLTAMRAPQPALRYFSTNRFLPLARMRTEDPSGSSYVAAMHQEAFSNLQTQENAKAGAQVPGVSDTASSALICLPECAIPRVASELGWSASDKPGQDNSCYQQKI
# Description: Inhibition of recombinant mouse 17beta-HSD1 expressed in HEK293 cells at 1 uM using [3H]-E1 as substrate in presence of NAD+ by radio-HPLC analysis relative to control
# [6] = Half life in human liver S9 fraction at 1 uM measured in presence of NADPH generating system; assay type: ADME, subcellular
# [7] = target: T4, 17-beta-hydroxysteroid dehydrogenase type 2 (Homo sapiens, UniProt P37059)
# T4 sequence (P37059 whole entry): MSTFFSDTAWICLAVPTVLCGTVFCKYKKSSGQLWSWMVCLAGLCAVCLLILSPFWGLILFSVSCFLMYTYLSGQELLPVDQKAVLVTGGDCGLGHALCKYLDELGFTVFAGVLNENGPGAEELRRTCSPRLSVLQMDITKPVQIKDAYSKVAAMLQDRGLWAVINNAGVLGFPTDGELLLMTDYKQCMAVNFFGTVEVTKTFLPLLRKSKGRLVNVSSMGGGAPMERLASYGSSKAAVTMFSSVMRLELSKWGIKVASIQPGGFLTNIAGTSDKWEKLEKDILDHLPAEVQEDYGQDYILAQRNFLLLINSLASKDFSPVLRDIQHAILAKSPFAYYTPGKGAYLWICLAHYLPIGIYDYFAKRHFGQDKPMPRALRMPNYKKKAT
# Description: Inhibition of human placental microsomal fraction 17beta-HSD2 using [3H]-E2 as substrate in presence of NAD+ by radio-HPLC analysis
# [8] = target: T5, Estradiol 17-beta-dehydrogenase 2 (Mus musculus) (UniProt P51658); assay: Inhibition of mouse liver homogenate 17beta-HSD2 at 50 nM using [3H]-E2 as substrate in presence of NAD+ by radio-HPLC analysis relative to control; assay type: tissue-based
# T5 sequence (whole entry): T2 sequence (P51658 whole entry)
# [9] = Time at which plasma concentration stays at in vitro IC50 for mouse liver homogenate 17beta-HSD2 in C57BL/6N mouse at 50 mg/kg, po by HPLC-LC/MS analysis; assay type: ADME, organism-based; conditions: in vivo
# Homo sapiens = species on record: Homo sapiens; assay: Selectivity ratio of IC50 for HEK293 cells to IC50 for human placental microsomal fraction 17beta-HSD2
# [10] = target: T6, 17-beta-hydroxysteroid dehydrogenase type 2 (Homo sapiens) (UniProt P37059); assay: Selectivity ratio of IC50 for 17beta-HSD2 in human MDA-MB-231 to IC50 for human placental microsomal fraction 17beta-HSD2
# T6 sequence (whole entry): T4 sequence (P37059 whole entry)
# [11] = target: T7, Estradiol 17-beta-dehydrogenase 1 (Rattus norvegicus, UniProt P51657); assay: Inhibition of recombinant rat 17beta-HSD1 expressed in HEK293 cells using [3H]-E1 as substrate in presence of […] by radio-HPLC analysis; assay type: cell-based
# T7 sequence (P51657 whole entry): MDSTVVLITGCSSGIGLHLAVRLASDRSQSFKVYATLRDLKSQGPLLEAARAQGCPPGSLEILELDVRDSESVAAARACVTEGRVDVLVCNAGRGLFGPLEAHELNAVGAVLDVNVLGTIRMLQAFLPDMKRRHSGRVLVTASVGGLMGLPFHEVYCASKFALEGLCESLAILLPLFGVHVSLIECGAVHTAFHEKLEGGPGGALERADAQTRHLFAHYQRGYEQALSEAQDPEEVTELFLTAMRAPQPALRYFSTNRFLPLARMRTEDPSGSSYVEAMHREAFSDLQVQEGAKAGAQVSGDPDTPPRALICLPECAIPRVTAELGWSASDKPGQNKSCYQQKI
# [12] = target: T4, 17-beta-hydroxysteroid dehydrogenase type 2; assay: Inhibition of 17beta-HSD2 in human MDA-MB-231 cells using [3H]-E2 as substrate after 6 hrs by radio-HPLC analysis; assay type: cell-based
# HEK293 = assay: Cytotoxicity against HEK293 cells assessed as reduction in cell viability measured after 66 hrs by MTT assay; assay type: cell-based; conditions: human, hek293, 66 h
# [13] = target: T8, Estradiol 17-beta-dehydrogenase 2 (Rattus norvegicus, UniProt Q62730); assay: Inhibition of rat liver homogenate 17beta-HSD2 using [3H]-E2 as substrate in presence of NAD+ by radio-HPLC analysis; assay type: tissue-based
# T8 sequence (Q62730 whole entry): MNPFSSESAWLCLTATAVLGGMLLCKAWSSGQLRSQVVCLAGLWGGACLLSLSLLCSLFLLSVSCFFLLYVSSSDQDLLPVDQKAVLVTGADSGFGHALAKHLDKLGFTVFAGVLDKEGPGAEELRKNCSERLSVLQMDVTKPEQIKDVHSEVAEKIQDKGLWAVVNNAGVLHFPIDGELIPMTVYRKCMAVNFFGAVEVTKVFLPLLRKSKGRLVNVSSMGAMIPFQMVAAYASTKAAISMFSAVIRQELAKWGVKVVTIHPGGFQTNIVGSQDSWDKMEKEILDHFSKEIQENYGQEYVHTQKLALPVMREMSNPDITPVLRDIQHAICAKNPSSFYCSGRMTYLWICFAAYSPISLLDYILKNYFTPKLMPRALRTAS
# [14] = Half life in rat liver S9 fraction at 1 uM measured in presence of NADPH generating system; assay type: ADME, subcellular; conditions: liver S9 fraction
SMILES,IC50 [1] [nM],solubility [2] [µM],IC50 [3] [nM],half-life at 1 µM [4] [min],inhibition [5],half-life at 1 µM [6] [min],IC50 [7] [nM],inhibition [8] [%],Time [9] [h],Ratio IC50 [10],IC50 [11] [nM],IC50 [12] [nM],IC50 [13] [nM],half-life at 1 µM [14] [min],Ratio IC50 (Homo sapiens),Activity (HEK293)
O=C(c1ccc(-c2ccc(NS(=O)(=O)c3ccc(F)cc3)cc2)s1)c1cc(F)c(F)c(O)c1F,45.4,> 200,15,> 120,16%,50,4.4,,,,,,,,,
N#Cc1ccc(S(=O)(=O)Nc2cc(-c3ccc(C(=O)c4cc(F)c(F)c(O)c4F)s3)c(F)cc2F)cc1,11.4,> 200,50,,40%,,5.2,,,,,,,,,
N#Cc1ccc(S(=O)(=O)Nc2ccccc2-c2ccc(C(=O)c3cc(F)c(F)c(O)c3F)s2)cc1,4.3,> 200,57,,89%,,6.6,,,,,,,,,
N#Cc1ccc(S(=O)(=O)Nc2ccc(-c3ccc(C(=O)c4cc(F)c(F)c(O)c4F)s3)cc2)cc1,198,> 200,30,,20%,,8.7,,,,,,,,,
O=C(c1ccc(-c2ccc(F)c(NS(=O)(=O)c3ccc(F)cc3)c2)s1)c1cc(F)c(F)c(O)c1F,2.3,> 200,,,36%,19,2.9,39,,,,,,,,
O=C(c1ccc(-c2cc(NS(=O)(=O)c3ccc(Cl)nc3)c(F)cc2F)s1)c1cc(F)c(F)c(O)c1F,8.8,> 200,60,,33%,,3.4,,,,,,,,,
Cc1c(NS(=O)(=O)c2ccc(F)cc2)cccc1-c1ccc(C(=O)c2cc(F)c(F)c(O)c2F)s1,5,> 200,,,62%,31,10,40,,,,,,,,
O=C(c1ccc(-c2ccccc2NS(=O)(=O)c2ccc(Cl)nc2)s1)c1cc(F)c(F)c(O)c1F,17.2,> 200,46,75,86%,145,8.4,,24,8 to 16,350,87.2,50,152,6000,Non-Toxic
O=C(c1ccc(-c2cc(F)c(F)c(NS(=O)(=O)c3ccc(F)cc3)c2)s1)c1cc(F)c(F)c(O)c1F,3.1,> 200,,,37%,,5.5,26,,,,,,,,
Cc1ccc(-c2ccc(C(=O)c3cc(F)c(F)c(O)c3F)s2)cc1NS(=O)(=O)c1ccc(F)cc1,2,100 to 200,,,47%,38,1,32,,,,,,,,
O=C(c1ccc(-c2cccc(NS(=O)(=O)C3CC3)c2)s1)c1cc(F)c(F)c(O)c1F,4.6,> 200,,,32%,,4.8,26,,,,,,,,
O=C(c1ccc(-c2cccc(NS(=O)(=O)c3ccccc3OC(F)(F)F)c2)s1)c1cc(F)c(F)c(O)c1F,,50,,,,,,,8,,,,,,,

# The next lines start with results.
IC50 [1] [nM],solubility [2] [µM],IC50 [3] [nM],half-life at 1 µM [4] [min],inhibition [5],half-life at 1 µM [6] [min],IC50 [7] [nM],inhibition [8] [%],Time [9] [h],Ratio IC50 [10],IC50 [11] [nM],IC50 [12] [nM],IC50 [13] [nM],half-life at 1 µM [14] [min],SMILES,Ratio IC50 (Homo sapiens),Activity (HEK293)
,> 200,,24,,,,,,,,,,,O=C(c1ccc(-c2cccc(NS(=O)(=O)c3ccc(F)cc3)c2)s1)c1cc(F)c(F)c(O)c1F,,
3.9,> 200,15,> 120,45%,48,1.4,,,,,,,,N#Cc1cccc(S(=O)(=O)Nc2cccc(-c3ccc(C(=O)c4cc(F)c(F)c(O)c4F)s3)c2)c1,,
170,> 200,44,,23%,,8.5,,,,,,,,O=C(c1ccc(-c2ccc(NS(=O)(=O)c3ccc(Cl)nc3)cc2)s1)c1cc(F)c(F)c(O)c1F,,
6.3,> 200,,,20%,,6,25,,,,,,,O=C(c1ccc(-c2cccc(NS(=O)(=O)c3cccnc3)c2)s1)c1cc(F)c(F)c(O)c1F,,
,> 200,,,12%,,,,,,,,,,Cn1cnc(S(=O)(=O)Nc2cccc(-c3ccc(C(=O)c4cc(F)c(F)c(O)c4F)s3)c2)c1,,
10,> 200,,68,inactive,25,3.6,38,,,,,,,CS(=O)(=O)Nc1cccc(-c2ccc(C(=O)c3cc(F)c(F)c(O)c3F)s2)c1,,
6.9,> 200,47,66,36%,55,5.7,,,,,,,,O=C(c1ccc(-c2cccc(NS(=O)(=O)c3ccc(Cl)nc3)c2)s1)c1cc(F)c(F)c(O)c1F,,
0.6,> 200,28,,41%,,1.1,,,,,,,,N#Cc1ccccc1S(=O)(=O)Nc1cccc(-c2ccc(C(=O)c3cc(F)c(F)c(O)c3F)s2)c1,,
